According to patent publication US6573291B2, “Method and use” (Biovitrum AB, priority 2000, dated 2003):

Tests used:
[1] = tested on: RIN-m5F cells; experiment: Inhibition of GLP-1 stimulated insulin release in RIN-m5F cells; format: cell-based; settings: for GLP-1 induced insulin release: 3 nM GLP-1, 1 h, compounds 0.1 μM to 30 μM, FIG. 3
Protocol: The RIN-m5F cells were grown as in Example 2. The cells were plated in 96-well plates (10,000 per well) at a density of 2×10^5 cells per ml and grown for 3 days. The culture medium was changed the day before the experiment. On the day of the experiment, the medium was removed and replaced with serum-free RPMI 1640 containing 0.1% bovine serum albumin (serum-free medium). Dilutions of compounds prepared in serum-free medium from 10 mM DMSO stock solutions to give final concentrations from 0.1 μM to 30 μM were added. The cells were stimulated with 3 nM GLP-1 in a total volume of 200 μl for 1 h and the concentration of insulin in the medium was measured in an ELISA (Mercodia AB). The insulin release in the presence of medium was 6.3±1.4 ng/ml and 10.5±1.4 ng/ml in the presence of 3 nM GLP-1.

[2] = biological target: T1, endogenous GLP-1 receptor coupled to adenylate cyclase (Rattus norvegicus, UniProt P32301); experiment: Inhibition of GLP-1 induced cAMP signaling in RIN-m5F insulinoma cells; format: cell-based; settings: 3 nM GLP-1, 15 minutes, FIG. 2
T1 construct: host or cells: RIN-m5F insulinoma cells
T1 sequence (P32301 22-463): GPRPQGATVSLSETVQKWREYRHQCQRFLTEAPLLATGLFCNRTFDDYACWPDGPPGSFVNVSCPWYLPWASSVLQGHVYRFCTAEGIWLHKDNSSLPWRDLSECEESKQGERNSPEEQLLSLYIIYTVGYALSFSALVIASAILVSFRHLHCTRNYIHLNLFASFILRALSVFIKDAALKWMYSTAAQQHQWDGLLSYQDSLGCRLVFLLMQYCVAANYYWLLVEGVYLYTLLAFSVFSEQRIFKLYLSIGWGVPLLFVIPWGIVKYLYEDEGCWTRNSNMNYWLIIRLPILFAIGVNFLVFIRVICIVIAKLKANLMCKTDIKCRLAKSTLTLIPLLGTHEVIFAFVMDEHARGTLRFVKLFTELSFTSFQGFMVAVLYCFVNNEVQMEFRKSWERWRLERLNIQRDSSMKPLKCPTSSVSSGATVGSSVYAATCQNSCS
Protocol: The cells were obtained from the American Type Culture Collection (ATCC, #203641 F13132) and grown in RPMI 1640 (GIBCO, #21870-076) supplemented with 2 mM L-glutamine, 10% heat inactivated fetal bovine serum, and 10 μg/ml Gentamicin.
RIN-m5F cells were plated in 12 well plates at a density of 2.0×10^5 cells per ml and grown for 4 days in complete RPMI 1640 with 10% fetal bovine serum; the medium was changed the day before experiment. The cells were from 70-90% confluent at the time of the experiment. On the day of the experiment, the incubation medium was removed and the cells were washed with fresh serum-free RPMI 1640 containing 0.1% bovine serum albumin (serum-free medium). One ml DMEM complete with 1 mM 3-isobutyl-1-methylxanthine (Sigma) was added and the plates were placed at 37° C. and 5.0% CO2 for 15 minutes before initiation of the experiment. Fresh compounds were acquired and dissolved as 10 mM solutions in DMSO. A further 1:10 dilution was prepared in DMEM and after the incubation period, the compounds were added to the wells at 30 μM final concentration. The final concentration of DMSO was always 0.3%. The wells were treated with or without GLP-1 (3 nM). The plates were then incubated at 37° C. and 5.0% CO2 for 15 minutes. […] The solution was mixed well and quantitatively transferred to microcentrifuge tubes with 1 wash of 0.5 ml of the 50 mM NaOH solution. […]

[3] = biological target: T2, human GLP-1 receptor (Homo sapiens, UniProt P43220); experiment: Inhibition of 125I-GLP-1 binding to human recombinant GLP-1 receptors (SPA); settings: 125I-GLP-1, membranes of COS7 cells transfected with human GLP-1 receptor, Cheng-Prushoff equation; read-out: K1 value, inhibition of the binding of GLP-1 to its receptor
T2 construct: expressed in transfected cells; host or cells: COS7 cells (COShGLPr, clone #16)
T2 sequence (P43220 24-463): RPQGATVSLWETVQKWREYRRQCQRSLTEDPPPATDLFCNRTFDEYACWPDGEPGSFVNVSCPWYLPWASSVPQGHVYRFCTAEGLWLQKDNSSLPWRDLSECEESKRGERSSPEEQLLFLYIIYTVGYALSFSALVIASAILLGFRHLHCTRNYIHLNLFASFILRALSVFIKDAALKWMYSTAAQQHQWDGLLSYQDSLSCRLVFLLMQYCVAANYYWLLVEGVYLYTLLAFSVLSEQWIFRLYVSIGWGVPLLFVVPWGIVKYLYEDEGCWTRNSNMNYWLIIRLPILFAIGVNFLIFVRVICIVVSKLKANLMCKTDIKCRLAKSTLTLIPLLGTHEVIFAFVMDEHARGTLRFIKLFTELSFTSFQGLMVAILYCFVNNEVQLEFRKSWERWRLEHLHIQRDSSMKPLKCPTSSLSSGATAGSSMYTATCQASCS
Protocol: Wheatgerm agglutinin scintillation proximity assay (SPA) beads (500 mg) from Amersham (RPNQ 0001) were diluted into 50 ml of assay buffer (Assay buffer consisted of 150 mM NaCl, 10 mM MgCl2, 1 mM EDTA, and 20 mM HEPES, pH 7.4). The SPA beads were combined (1:1 v/v) with a crude membrane preparation from COS7 cells transfected with the human GLP-1 receptor at a concentration of 30 μg/ml/well. These cells (COShGLPr, clone #16) were grown in Dulbecco's Modified Eagle Medium with high glucose (DMEM Gibco, #11965-092) supplemented with 10% heat-inactivated fetal bovine serum (Gibco, #1600-044), 2 mM L-Glutamine (Gibco #25030-081), and 10 μg/ml Gentamicin (Gibco #15710-064) with 705 μg/ml Geneticin (G418 sulfate, Gibco) (DMEM complete). The mixture was incubated for two hours at room temperature with constant rotation. The free membranes were washed away by centrifuging the mixture for 5 minutes at 800 rpm in a table-top GLCl (Sorvall) centrifuge. The supernatant was discarded and the pellet was resuspended in 50 ml assay buffer+0.1% bovine serum albumin. […] The plates were counted approximately 10 h later in a Microbeta Trilux liquid scintillation counter (WALLAC). […] Binding constants (Ki) were calculated with the Cheng-Prushoff equation (Cheng Y C and Prushoff W H, Biochem Pharmacol 22:3099, 1973). […]

Ki [3] [nM] | Molecule | GLP-1 induced insulin release [1] | GLP-1 stimulated cAMP production [2] | insulin release ([1]; in the presence of 3 nM GLP-1 alone, 1 h (medium 6.3±1.4 ng/ml)) [ng/mL]
~1000 | Cc1nn(C)c(/C=C/Nc2cc(Cl)ccc2O)c1[N+](=O)[O-] [Compound A, 4-chloro-2-{[(E)-2-(1,3-dimethyl-4-nitro-1H-pyrazol-5-yl)ethenyl]amino}phenol] | substantial reduction of the GLP-1 induced insulin release | concentration dependently decreased GLP-1 stimulated cAMP production to a level close to that obtained in the absence of GLP-1 | –
– | Cc1nn(C)c(/C=C/Nc2ccc(F)cc2)c1[N+](=O)[O-] [Compound B, 4-fluoro-1-{[(E)-2-(1,3-dimethyl-4-nitro-1H-pyrazol-5-yl)ethenyl]amino}benzene] | substantial reduction of the GLP-1 induced insulin release | – | –
– | Cc1nn(C)c(/C=C/Nc2ccc(OC(F)(F)F)cc2)c1[N+](=O)[O-] [Compound C, 4-trifluoromethoxy-1-{[(E)-2-(1,3-dimethyl-4-nitro-1H-pyrazol-5-yl)ethenyl]amino}benzene] | substantial reduction of the GLP-1 induced insulin release | – | –
– | COc1ccc(N/C=C/c2c([N+](=O)[O-])c(C)nn2C)c(OC)c1 [Compound D, 2,4-dimethoxy-1-{[(E)-2-(1,3-dimethyl-4-nitro-1H-pyrazol-5-yl)ethenyl]amino}benzene] | substantial reduction of the GLP-1 induced insulin release | – | –
– | Glucagon-like peptide 1(7-36)amide [GLP-1, reference compound] | – | – | 10.5 ± 1.4
